System: MV-4-11 cells
Assay: Gene expression microarray analysis (Affymetrix PrimeView) and GSEA
Format: cell-based, human
Parameters: RFU PODN (11730768_x_at) / Fold change /veh PODN (11730768_x_at) / RFU LINC00158 (11744669_a_at) / Fold change /veh LINC00158 (11744669_a_at) / RFU DUSP10 (11751237_a_at) / Fold change /veh DUSP10 (11751237_a_at) / RFU ID3 (11757404_x_at) / Fold change /veh ID3 (11757404_x_at) / RFU PLEKHG5 (11737974_s_at) / Fold change /veh PLEKHG5 (11737974_s_at) / RFU LRRC4B (11730491_at) / Fold change /veh LRRC4B (11730491_at) / RFU GIMAP4 (11747438_a_at) / Fold change /veh GIMAP4 (11747438_a_at) / RFU KRT8 (11758183_x_at) / Fold change /veh KRT8 (11758183_x_at) / RFU CNN1 (11734310_a_at) / Fold change /veh CNN1 (11734310_a_at) / RFU VPS37D (11726825_at) / Fold change /veh VPS37D (11726825_at) / RFU C10orf10 (11716522_x_at) / Fold change /veh C10orf10 (11716522_x_at) / RFU KIR2DL2 /// KIR2DL4 /// KIR2DL5A /// KIR2DL5B /// KIR2DS1 /// KIR2DS2 /// KIR2DS3 /// KIR2DS4 /// KIR3DL3 /// KIR3DL3 /// KIR3DS1 (11738374_at) / Fold change /veh KIR2DL2 /// KIR2DL4 /// KIR2DL5A /// KIR2DL5B /// KIR2DS1 /// KIR2DS2 /// KIR2DS3 /// KIR2DS4 /// KIR3DL3 /// KIR3DL3 /// KIR3DS1 (11738374_at) / RFU C1QL1 (11718748_at) / Fold change /veh C1QL1 (11718748_at) / RFU TMPRSS4 (11747572_a_at) / Fold change /veh TMPRSS4 (11747572_a_at) / RFU HAMP (11756126_x_at) / Fold change /veh HAMP (11756126_x_at) / RFU RNFT2 (11725882_a_at) / Fold change /veh RNFT2 (11725882_a_at) / RFU NR4A2 (11747474_a_at) / Fold change /veh NR4A2 (11747474_a_at) / RFU ABCC12 (11746883_a_at) / Fold change /veh ABCC12 (11746883_a_at) / RFU TMEM136 (11760407_x_at) / Fold change /veh TMEM136 (11760407_x_at) / RFU CLDN22 /// WWC2 (11732394_at) / Fold change /veh CLDN22 /// WWC2 (11732394_at) / RFU HLA-DPB1 (11760878_x_at) / Fold change /veh HLA-DPB1 (11760878_x_at) / RFU SPINT1 (11716480_a_at) / Fold change /veh SPINT1 (11716480_a_at) / RFU GAP43 (11754022_s_at) / Fold change /veh GAP43 (11754022_s_at) / RFU A4GNT (11735810_at) / Fold change /veh A4GNT (11735810_at) / RFU PRB3 (11715151_x_at) / Fold change /veh PRB3 (11715151_x_at) / RFU TUBB4B (11761932_at) / Fold change /veh TUBB4B (11761932_at) / RFU CAPN14 (11732068_a_at) / Fold change /veh CAPN14 (11732068_a_at) / RFU TMCC2 (11721928_a_at) / Fold change /veh TMCC2 (11721928_a_at) / RFU IRGQ (11745062_a_at) / Fold change /veh IRGQ (11745062_a_at) / RFU FAM174B (11720279_a_at) / Fold change /veh FAM174B (11720279_a_at) / RFU TMPRSS4 (11748680_a_at) / Fold change /veh TMPRSS4 (11748680_a_at) / RFU FAM212B (11763350_a_at) / Fold change /veh FAM212B (11763350_a_at) / RFU PLEKHG5 (11743358_a_at) / Fold change /veh PLEKHG5 (11743358_a_at) / RFU ZSCAN30 (11745921_a_at) / Fold change /veh ZSCAN30 (11745921_a_at) / RFU CMKLR1 (11741424_a_at) / Fold change /veh CMKLR1 (11741424_a_at) / RFU LOC101060620 /// MAPK8IP1 (11723275_at) / Fold change /veh LOC101060620 /// MAPK8IP1 (11723275_at) / RFU SPTSSB (11747773_x_at) / Fold change /veh SPTSSB (11747773_x_at) / RFU PRSS12 (11739890_at) / Fold change /veh PRSS12 (11739890_at) / RFU BIN1 (11741810_x_at) / Fold change /veh BIN1 (11741810_x_at) / RFU WNT11 (11732464_a_at) / Fold change /veh WNT11 (11732464_a_at) / RFU C10orf10 (11716521_a_at) / Fold change /veh C10orf10 (11716521_a_at) / RFU C5orf56 (11738089_at) / Fold change /veh C5orf56 (11738089_at) / RFU CYB561 (11721691_x_at) / Fold change /veh CYB561 (11721691_x_at) / RFU ANKRD19P (11752326_a_at) / Fold change /veh ANKRD19P (11752326_a_at) / RFU OR2T12 /// OR2T33 /// OR2T8 (11738714_s_at) / Fold change /veh OR2T12 /// OR2T33 /// OR2T8 (11738714_s_at) / RFU VCAN (11748164_a_at) / Fold change /veh VCAN (11748164_a_at) / RFU JSRP1 (11732532_at) / Fold change /veh JSRP1 (11732532_at) / RFU KRTAP10-11 (11738290_x_at) / Fold change /veh KRTAP10-11 (11738290_x_at) / RFU MYO3A (11730013_a_at) / Fold change /veh MYO3A (11730013_a_at) / RFU EBF3 (11725865_a_at) / Fold change /veh EBF3 (11725865_a_at) / RFU CAMK2N1 (11719241_x_at) / Fold change /veh CAMK2N1 (11719241_x_at) / RFU C5orf56 (11738088_a_at) / Fold change /veh C5orf56 (11738088_a_at) / RFU OLFML3 (11715873_a_at) / Fold change /veh OLFML3 (11715873_a_at) / RFU LOC100653217 /// NTM (11731650_a_at) / Fold change /veh LOC100653217 /// NTM (11731650_a_at) / RFU MAPK11 (11762145_a_at) / Fold change /veh MAPK11 (11762145_a_at) / RFU FIZ1 (11724087_x_at) / Fold change /veh FIZ1 (11724087_x_at) / RFU OASL (11726364_x_at) / Fold change /veh OASL (11726364_x_at) / RFU SOX15 (11748057_x_at) / Fold change /veh SOX15 (11748057_x_at) / RFU CD79A (11719716_a_at) / Fold change /veh CD79A (11719716_a_at) / RFU HIST1H1D (11736915_at) / Fold change /veh HIST1H1D (11736915_at) / RFU CASKIN2 (11723855_a_at) / Fold change /veh CASKIN2 (11723855_a_at) / RFU LOC730098 (11760151_x_at) / Fold change /veh LOC730098 (11760151_x_at) / RFU OR4N2 (11742367_at) / Fold change /veh OR4N2 (11742367_at) / RFU PRRT2 (11749266_a_at) / Fold change /veh PRRT2 (11749266_a_at) / RFU SNX32 (11753110_a_at) / Fold change /veh SNX32 (11753110_a_at) / RFU CDHR5 (11726645_a_at) / Fold change /veh CDHR5 (11726645_a_at) / RFU RCAN1 (11760418_a_at) / Fold change /veh RCAN1 (11760418_a_at) / RFU FAM167A (11723789_a_at) / Fold change /veh FAM167A (11723789_a_at) / RFU FAM26E (11764081_at) / Fold change /veh FAM26E (11764081_at) / RFU ISYNA1 (11749810_s_at) / Fold change /veh ISYNA1 (11749810_s_at) / RFU ACY1 (11761880_at) / Fold change /veh ACY1 (11761880_at) / RFU 11764098_at / Fold change /veh 11764098_at / RFU SAMD14 (11745864_x_at) / Fold change /veh SAMD14 (11745864_x_at) / RFU NPB (11741838_a_at) / Fold change /veh NPB (11741838_a_at) / RFU TMPRSS6 (11731388_a_at) / Fold change /veh TMPRSS6 (11731388_a_at) / RFU KRTAP10-2 (11738614_at) / Fold change /veh KRTAP10-2 (11738614_at) / RFU ARHGAP8 /// PRR5-ARHGAP8 (11727945_x_at) / Fold change /veh ARHGAP8 /// PRR5-ARHGAP8 (11727945_x_at) / RFU KRTAP5-7 /// NADSYN1 (11734609_at) / Fold change /veh KRTAP5-7 /// NADSYN1 (11734609_at) / RFU RASL12 (11751679_a_at) / Fold change /veh RASL12 (11751679_a_at) / RFU CDKN2B (11736163_a_at) / Fold change /veh CDKN2B (11736163_a_at) / RFU PRF1 (11729649_at) / Fold change /veh PRF1 (11729649_at) / RFU, ZNF638 /// ZNF638-IT1 / Fold change vs veh, ZNF638 /// ZNF638-IT1 / RFU, PANK3 / Fold change vs veh, PANK3 / RFU, SH3YL1 / Fold change vs veh, SH3YL1 / RFU, ZEB2 / Fold change vs veh, ZEB2 / RFU, NRIP1 / Fold change vs veh, NRIP1 / RFU, PTTG1IP / Fold change vs veh, PTTG1IP / RFU, CAPN2 / Fold change vs veh, CAPN2 / RFU, MED14 / Fold change vs veh, MED14 / RFU, SNORA58 / Fold change vs veh, SNORA58 / RFU, C1orf63 / Fold change vs veh, C1orf63 / RFU, LRRFIP1 / Fold change vs veh, LRRFIP1 / RFU, NDUFAF7 / Fold change vs veh, NDUFAF7 / RFU, SLC12A2 / Fold change vs veh, SLC12A2 / RFU, IBTK / Fold change vs veh, IBTK / RFU, ESF1 / Fold change vs veh, ESF1 / Fold change vs veh, TMEM50B / RFU, TAOK1 / Fold change vs veh, TAOK1 / RFU, ACBD3 / Fold change vs veh, ACBD3 / RFU, TMA16 / Fold change vs veh, TMA16 / RFU, RWDD3 / Fold change vs veh, RWDD3 / RFU, BCAT1 / Fold change vs veh, BCAT1 / RFU, EDEM3 / Fold change vs veh, EDEM3 / RFU, TMEM33 / Fold change vs veh, TMEM33 / RFU, WDR75 / Fold change vs veh, WDR75 / RFU, AHCTF1 / Fold change vs veh, AHCTF1 / RFU, TFRC / Fold change vs veh, TFRC / RFU, ZDHHC17 / Fold change vs veh, ZDHHC17 / RFU, NOM1 / Fold change vs veh, NOM1 / RFU, ARL8B / Fold change vs veh, ARL8B / RFU, ZBTB11 / Fold change vs veh, ZBTB11 / RFU, TAMM41 / Fold change vs veh, TAMM41 / RFU, KIAA1704 /// LOC100996395 / Fold change vs veh, KIAA1704 /// LOC100996395 / RFU, ING1 / Fold change vs veh, ING1 / RFU, TRMT61B / Fold change vs veh, TRMT61B / RFU, FUBP3 / Fold change vs veh, FUBP3 / RFU, TP53 / Fold change vs veh, TP53 / RFU, TNKS2 / Fold change vs veh, TNKS2 / RFU, ZFP14 / Fold change vs veh, ZFP14 / RFU, ACTR2 / Fold change vs veh, ACTR2 / RFU, PPP3R1 / Fold change vs veh, PPP3R1 / RFU, PIK3R1 / Fold change vs veh, PIK3R1 / RFU, HNRNPA1 / Fold change vs veh, HNRNPA1 / RFU, RNF170 / Fold change vs veh, RNF170 / RFU, ZNF28 / Fold change vs veh, ZNF28 / RFU, RNGTT / Fold change vs veh, RNGTT / RFU, OGT / Fold change vs veh, OGT / RFU, BRD1 / Fold change vs veh, BRD1 / RFU, MARS / Fold change vs veh, MARS / RFU, ZNF655 / Fold change vs veh, ZNF655 / RFU, FAHD1 / Fold change vs veh, FAHD1 / RFU, BDP1 / Fold change vs veh, BDP1 / RFU, LRRCC1 / Fold change vs veh, LRRCC1 / RFU, ARID1A / Fold change vs veh, ARID1A / RFU, ZNF146 / Fold change vs veh, ZNF146 / RFU, ZNF330 / Fold change vs veh, ZNF330 / RFU, GPN3 / Fold change vs veh, GPN3 / RFU, C9orf123 / Fold change vs veh, C9orf123 / RFU, N4BP2L2 / Fold change vs veh, N4BP2L2 / RFU, ARFIP1 / Fold change vs veh, ARFIP1 / RFU, FAM179B / Fold change vs veh, FAM179B / RFU, BCL10 / Fold change vs veh, BCL10 / RFU, UHRF1BP1L / Fold change vs veh, UHRF1BP1L / RFU, BET1 / Fold change vs veh, BET1 / RFU, CNOT2 / Fold change vs veh, CNOT2 / RFU, ZNF268 / Fold change vs veh, ZNF268 / Fold change vs veh, ZNF507 / RFU, DGCR2 / Fold change vs veh, DGCR2 / RFU, WDSUB1 / Fold change vs veh, WDSUB1 / Fold change vs veh, HSP90B1 /// MIR3652 / RFU, ADSS / Fold change vs veh, ADSS / RFU, GK / Fold change vs veh, GK / RFU, ZNF148 / Fold change vs veh, ZNF148 / RFU, TAF9 / Fold change vs veh, TAF9 / RFU, SLC1A5 / Fold change vs veh, SLC1A5 / RFU, SLMO2 / Fold change vs veh, SLMO2 / RFU, ABCC4 / Fold change vs veh, ABCC4 / RFU, LOC101060439 /// RAP1B / Fold change vs veh, LOC101060439 /// RAP1B / RFU, RFX7 / Fold change vs veh, RFX7 / RFU, GTPBP10 / Fold change vs veh, GTPBP10 / RFU, CNEP1R1 / Fold change vs veh, CNEP1R1 / RFU, BIVM-ERCC5 /// ERCC5 / Fold change vs veh, BIVM-ERCC5 /// ERCC5 / RFU, ILF3 / Fold change vs veh, ILF3 / RFU 11762660_at / Fold change /veh 11762660_at / RFU VCAN (11757783_s_at) / Fold change /veh VCAN (11757783_s_at) / RFU DDX43 (11728927_at) / Fold change /veh DDX43 (11728927_at) / RFU KRT8 (11758188_x_at) / Fold change /veh KRT8 (11758188_x_at) / RFU NKD1 (11759106_at) / Fold change /veh NKD1 (11759106_at) / RFU SRD5A1 (11742802_a_at) / Fold change /veh SRD5A1 (11742802_a_at) / RFU TPSAB1 /// TPSB2 (11721975_s_at) / Fold change /veh TPSAB1 /// TPSB2 (11721975_s_at) / RFU GSTM3 (11746129_a_at) / Fold change /veh GSTM3 (11746129_a_at) / RFU IL23R (11737362_x_at) / Fold change /veh IL23R (11737362_x_at) / RFU TMEM51 (11727254_a_at) / Fold change /veh TMEM51 (11727254_a_at) / RFU PIWIL2 (11732686_x_at) / Fold change /veh PIWIL2 (11732686_x_at) / RFU ORM1 (11744905_x_at) / Fold change /veh ORM1 (11744905_x_at) / RFU CCDC152 (11743942_at) / Fold change /veh CCDC152 (11743942_at) / RFU ECM1 (11717891_a_at) / Fold change /veh ECM1 (11717891_a_at) / RFU IL23R (11748794_a_at) / Fold change /veh IL23R (11748794_a_at) / RFU TNFAIP8L3 (11732012_x_at) / Fold change /veh TNFAIP8L3 (11732012_x_at) / RFU MBOAT4 (11741988_at) / Fold change /veh MBOAT4 (11741988_at) / RFU 11764193_at / Fold change /veh 11764193_at / RFU TMEM53 (11763286_at) / Fold change /veh TMEM53 (11763286_at) / RFU MAGEB2 (11727129_at) / Fold change /veh MAGEB2 (11727129_at) / RFU TMEM200A (11744735_a_at) / Fold change /veh TMEM200A (11744735_a_at) / RFU CCDC152 (11751479_a_at) / Fold change /veh CCDC152 (11751479_a_at) / RFU FAM211A (11726209_a_at) / Fold change /veh FAM211A (11726209_a_at) / RFU RGS16 (11746705_a_at) / Fold change /veh RGS16 (11746705_a_at) / RFU VCAN (11755009_s_at) / Fold change /veh VCAN (11755009_s_at) / RFU RHOB (11743442_s_at) / Fold change /veh RHOB (11743442_s_at) / RFU RGS16 (11720943_a_at) / Fold change /veh RGS16 (11720943_a_at) / RFU RGS16 (11720944_at) / Fold change /veh RGS16 (11720944_at) / RFU, VPS4B / Fold change vs veh, VPS4B / RFU, CREB1 / Fold change vs veh, CREB1 / RFU, DNAJC13 / Fold change vs veh, DNAJC13 / RFU, GNAQ / Fold change vs veh, GNAQ / RFU, CDK5R1 / Fold change vs veh, CDK5R1 / RFU, ZRANB3 / Fold change vs veh, ZRANB3 / RFU, CUL4A / Fold change vs veh, CUL4A / RFU, CCNY / Fold change vs veh, CCNY / RFU, UFL1 / Fold change vs veh, UFL1 / RFU, COG3 / Fold change vs veh, COG3 / RFU, DIAPH2 / Fold change vs veh, DIAPH2 / RFU, SKA2 / Fold change vs veh, SKA2 / RFU, AFF3 / Fold change vs veh, AFF3 / RFU, LMF1 / Fold change vs veh, LMF1 / RFU, IPO11 / Fold change vs veh, IPO11 / RFU, DFFB / Fold change vs veh, DFFB / RFU, FOXP1 / Fold change vs veh, FOXP1 / RFU, CARD8 / Fold change vs veh, CARD8 / RFU, STRN3 / Fold change vs veh, STRN3 / RFU, ADK / Fold change vs veh, ADK / RFU, RASSF2 / Fold change vs veh, RASSF2 / RFU, WIPF1 / Fold change vs veh, WIPF1 / RFU, LARP1B / Fold change vs veh, LARP1B / RFU, RASA1 / Fold change vs veh, RASA1 / RFU, RB1 / Fold change vs veh, RB1 / RFU, PPFIA1 / Fold change vs veh, PPFIA1 / RFU, MAT2A / Fold change vs veh, MAT2A / RFU, CCT5 / Fold change vs veh, CCT5 / RFU, WDR92 / Fold change vs veh, WDR92 / RFU, CUX1 / Fold change vs veh, CUX1 / RFU, TTC7A / Fold change vs veh, TTC7A / RFU, TMEM135 / Fold change vs veh, TMEM135 / RFU, DEPTOR / Fold change vs veh, DEPTOR / RFU, CPM / Fold change vs veh, CPM / RFU, DNAJB6 / Fold change vs veh, DNAJB6 / RFU, CACNA2D3 / Fold change vs veh, CACNA2D3 / RFU, DTX4 / Fold change vs veh, DTX4 / RFU, TFCP2 / Fold change vs veh, TFCP2 / RFU, GMCL1 /// GMCL1P1 / Fold change vs veh, GMCL1 /// GMCL1P1 / RFU, AEBP2 / Fold change vs veh, AEBP2 / RFU, SNHG1 /// SNORD22 /// SNORD25 /// SNORD26 /// SNORD27 /// SNORD28 /// SNORD29 /// SNORD31 / Fold change vs veh, SNHG1 /// SNORD22 /// SNORD25 /// SNORD26 /// SNORD27 /// SNORD28 /// SNORD29 /// SNORD31 / Fold change (Aza/veh), C12orf56 (ProbeSet 11735607_a_at) / Fold change (ACY-1035/veh), C12orf56 (ProbeSet 11735607_a_at) / Fold change (Aza/veh), FGFR1OP (ProbeSet 11751329_s_at) / Fold change (ACY-1035/veh), FGFR1OP (ProbeSet 11751329_s_at) / Fold change (Aza/veh), VPS36 (ProbeSet 11739960_a_at) / Fold change (ACY-1035/veh), VPS36 (ProbeSet 11739960_a_at) / RFU SYPL1 (11715823_x_at) / Fold change /veh SYPL1 (11715823_x_at) / RFU IGFBP7 (11715501_s_at) / Fold change /veh IGFBP7 (11715501_s_at) / RFU REEP3 (11722064_at) / Fold change /veh REEP3 (11722064_at) / RFU IGLL1 (11728026_x_at) / Fold change /veh IGLL1 (11728026_x_at): dose or concentration left out as unconfirmed
Details: MV-4-11 cells, 48 hours

Which “Fold change /veh KRTAP10-2 (11738614_at)” value does the source give for `Nc1ncn([C@@H]2O[C@H](CO)[C@@H](O)[C@H]2O)c(=O)n1` [azacitidine] here?
The value was 0.93.

Reference: paper PMC5218480 (PLoS ONE, 2017)
